The subject of one assay is DDAH1. The experiment in a line: DDAH1 gene expression (real-time RT-PCR) in endothelial cells. Type of assay: cell-based. Particulars: human umbilical endothelial cells, 24 hours, FIG. 1A. The protocol: (§1) Human umbilical endothelial cells were seeded in 6-well plates (50,000 cells per well) and incubated with EGM (endothelial cell growth medium with bullet kit, Lonza) overnight. Then, triplicate wells were treated with indicated concentrations of cerivastatin in 2 ml of EGM. After 24 hours, total RNA was extracted using the RNeasy Kit (Qiagen, Valencia, Calif. After reverse transcription (RT) using the High Capacity cDNA Reverse Transcription Kit (Applied Biosystems, Foster City, Calif.), PCR was performed using an ABI Prism 7500 Sequence Detection System (Applied Biosystems, Foster City, Calif.) and QuantiTect SYBR Green PCR Master Mix (Qiagen, Valencia, Calif.). All reactions were carried out in triplicate, and each mRNA copy level was quantified using comparative CT method. Expression of actin was used as an endogenous control in all experiments and relative fold changes were calculated. All data were expressed as the means±standard deviation. The gene-specific forward and reverse primer sequences were • 5′-[…]-3′(SEQ ID NO: 2) and 5′-[…]-3′ (SEQ ID NO: 3) for actin; • 5′-[…]-3′ (SEQ ID NO: 4) and 5′-ggggtgttgaagcaat-3′ (SEQ ID NO: 5) for DDAH-1; • 5′-[…]-3′ (SEQ ID NO: 6) and 5′-[…]-3′ (SEQ ID NO: 7) for DDAH-2.

Assay [1] has as its system rat model of PAH. In words: Echocardiography in MCT rat model of PAH. Type of assay: in vivo. Particulars: intratracheal, twice weekly, 2 mg/ml in PBS. On the procedure:
PAH was induced in adult male Sprague-Dawley rats ( 375 to 425 g, n=12, Harlan Laboratories) by a single, subcutaneous injection of monocrotnil (MCT) (60 mg/kg; n=24). Schultze, A. E. and Roth, R. A. J. Toxicol. Environ. Health. B, Crit. Rev. 1(4): 271-346 (1998). The animals injected with MCT were randomly assigned to 2 groups that received intratracheal (I.T.) aerosol instillation (MicroSprayer® Aerosolizer Model IA-1B, PennCentury, Inc.) of PBS twice weekly (200 μl; n=6), and a second group received IT. aerosol instillation of Cerivastatin twice weekly (2 mg/ml in PBS; n=6 I.T. instillations of PBS and Cerivastatin were administered the day of MCT injection until the rats were euthanized on day 42. Echocardiography was performed at day 14, 28, and 42. Right heart catheterization was performed on day 42 before being euthanized. Sedation was induced by placing the rat in an anesthesia induction chamber with gas flow at 1 l/min, and the isoflurane was delivered via vaporizer at 3-4%. After induction, the rat was intubated and remained anesthetized with inhalant isoflurane at 1% for echo and 2% for right heart catheterization. After shaving the chest, 70% isopropyl alcohol was applied as the ultrasound transmission media and transthoracic echocardiography was performed (GE vivid i with […]-RS linear array transducer, 5.0-13.0 MHz). The 2-D modality was applied to measure PA diameter at the level of the pulmonary outflow tract from the parasternal short-axis view. PA acceleration time (PAAT) and PA flow velocity time integral (VTI) were measured using pulse-wave Doppler with the sample volume centrally positioned in the PA distal to the pulmonary valve. Angle correction was used to adjust the pulse-wave cursor such that it was positioned parallel to pulmonary artery flow. By combining PA VTI with the PA cross-sectional area, echocardiographically derived stroke volume was determined. M-mode was applied to measure right ventricular cavity thickness during end diastole using the parasternal long-axis view obtained from the right side of the rat.

The next assay deals with CCR2. The experiment in a line: CCR2 gene expression (real-time RT-PCR) in THP-1 cells. Type of assay: cell-based. Particulars: human THP-1 cells, TNF-α + 10 μM statin, FIG. 2B. The protocol:
THP-1 cells were obtained from the American Tissue Type Culture Collection (ATCC). Cells were maintained in RPMI-1640 (Mediatech, Manassas, Va.) containing 10% fetal bovine serum (FBS; Sigma-Aldrich) and 1% penicillin/streptomycin (Sigma-Aldrich), and incubated in a humidified incubator containing 5% CO2/95% air at 37° C. In all experiments, cells were seeded at the concentration of 5×10^5 cells/mL in 12 well plates and then various statins were added to the medium. After 1 h, […] at a final concentration of 100 ng/ml or TNF-[…] at a final concentration of 10 ng/mL was added to the cultures. Cell pellets were collected for RNA and protein isolation.
Total RNA was extracted using the RNeasy Kit (Qiagen, Valencia, Calif.) according to the manufacturer's instructions. After reverse transcription (RT) using the High Capacity cDNA Reverse Transcription Kit (Applied Biosystems, Foster City, Calif.), PCR was performed using an ABI Prism 7500 Sequence Detection System (Applied Biosystems, Foster City, Calif.) and QuantiTect SYBR Green PCR Master Mix (Qiagen, Valencia, Calif.). All reactions were carried out in triplicate, and each mRNA copy level was quantified using comparative CT method. Expression of actin was used as an endogenous control in all experiments and relative fold changes were calculated. All data were expressed as the means±standard deviation. […]

Another assay deals with DDAH2. The experiment in a line: DDAH2 gene expression (real-time RT-PCR) in endothelial cells. Type of assay: cell-based. As to conditions: human umbilical endothelial cells, 24 hours, dose dependent, FIG. 1B. The protocol: as §1
For assay [2], the system named is rat model of PAH. The experiment in a line: RV hypertrophy (RV weight ratio) in MCT rat model of PAH. Type of assay: in vivo. As to conditions: intratracheal, twice weekly, 2 mg/ml in PBS, day 42, relative to MCT injection PAH model, FIG. 6. The protocol: (§2) PAH was induced in adult male Sprague-Dawley rats (˜375 to 425 g, n=12, Harlan Laboratories) by a single, subcutaneous injection of monocrotnil (MCT) (60 mg/kg; n=24). Schultze, A. E. and Roth, R. A. J. Toxicol. Environ. Health. B, Crit. Rev. 1(4): 271-346 (1998). The animals injected with MCT were randomly assigned to 2 groups that received intratracheal (I.T.) aerosol instillation (MicroSprayer® Aerosolizer Model IA-1B, PennCentury, Inc.) of PBS twice weekly (200 μl; n=6), and a second group received IT. aerosol instillation of Cerivastatin twice weekly (2 mg/ml in PBS; n=6 I.T. instillations of PBS and Cerivastatin were administered the day of MCT injection until the rats were euthanized on day 42. After recording hemodynamic measurements and collecting blood, the animals were euthanized under deep anesthesia (isoflurane 5%) and the lungs and heart were isolated. The RV free wall was dissected from the left ventricle and interventricular septum (IVS), and the wet weight of each was recorded. RV hypertrophy was obtained as a RV weight/(LV+IVS weights) ratio.

The subject of assay [3] is rat model of PAH. In words: PA pressure by right heart catheterization in MCT rat model of PAH. As to conditions: intratracheal, twice weekly, 2 mg/ml in PBS, day 42, relative to MCT injection PAH model. It is filed as in vivo. On the procedure: as §2, with “42.” for “42. After recording hemodynamic measurements and collecting blood, the animals were euthanized under deep anesthesia (isoflurane 5%) and the lungs and heart were isolated. The RV free wall was dissected from the left ventricle and interventricular septum (IVS), and the wet weight of each was recorded. RV hypertrophy was obtained as a RV weight/(LV+IVS weights) ratio.”
Echocardiography was performed at day 14, 28, and 42. Right heart catheterization was performed on day 42 before being euthanized. Sedation was induced by placing the rat in an anesthesia induction chamber with gas flow at 1 l/min, and the isoflurane was delivered via vaporizer at 3-4%. After induction, the rat was intubated and remained anesthetized with inhalant isoflurane at 1% for echo and 2% for right heart catheterization.
A 1.4-F micromanometer-tipped Millar pressure catheter (Millar Instruments) was used to measure systolic (sPAP), mean (mPAP), and diastolic PA pressure (dPAP) in all rats. […]

Assay [4] relates to pulmonary aterial hypertension. Particulars: injected intraperitoneally; cited from earlier work.

With `COCc1c(C(C)C)nc(C(C)C)c(/C=C/[C@@H](O)C[C@@H](O)CC(=O)O)c1-c1ccc(F)cc1` [cerivastatin, (3R,5S,6E)-7-[4-(4-fluorophenyl)-5-(methoxymethyl)-2,6-bis(propan-2-yl)pyridin-3-yl]-3,5-dihydroxyhept-6-enoic acid], the “effect on the expression of DDAH1 (relative mRNA level)” value with DDAH1 is “relatively small and non-concentration dependent effect”. The “pulmonary artery acceleration time (PAAT)” value with rat model of PAH [1] (FIG. 7A (plotted in ms)) is “significantly increased”. The “mean right ventricle thickening (RV cavity thickness)” value with rat model of PAH [1] (relative to MCT injection PAH model, FIGS. 5A and 5B) is given as “significantly reduced”. The “PAAT as percent of the control” value in the assay on rat model of PAH [1] (MCT alone 40.5% of the control, FIG. 7B) is on record as 60.7 % of the control. Further, in the assay with CCR2, the CCR2 expression entry is “reduces CCR2”. The “effect on the expression of DDAH2 (relative mRNA level)” value in the assay with DDAH2 is recorded as “more than 600%”. For the same molecule, in the assay with rat model of PAH [2], the “right ventricular (RV) weight ratio (RV/(LV+septum))” value is reported as “significantly reduced”. In the assay with rat model of PAH [3] (FIG. 3), the “systolic pulmonary artery pressure (sPAP)” value is given as “statistically significant decrease”. Also, in the assay with rat model of PAH [3] (FIG. 4), the “mean pulmonary artery pressure (mPAP)” value is recorded as “statistically significant decrease”.

For the molecule `CC(C)c1c(C(=O)Nc2ccccc2)c(-c2ccccc2)c(-c2ccc(F)cc2)n1CC[C@@H](O)C[C@@H](O)CC(=O)O` [atorvastatin], the “improvement of pulmonary arterial hypertension” value in assay [4] is recorded as “not”.

(Values after US8586527B2, “Cerivastatin to treat pulmonary disorders” (priority 2011, dated 2013).)
